Test results reported in patent publication US20220370453A1 (Storm Therapeutics Ltd, priority 2019, published 2022).

What was measured:
BCDIN3D [1] = target: T1, BCDIN3D (Homo sapiens, UniProt Q7Z5W3); test: BCDIN3D InCellPulse thermal stability assay in transfected A549 cells; assay type: cell-based; conditions: heat shock 58° C. 15 min
T1 sequence (Q7Z5W3 1-292): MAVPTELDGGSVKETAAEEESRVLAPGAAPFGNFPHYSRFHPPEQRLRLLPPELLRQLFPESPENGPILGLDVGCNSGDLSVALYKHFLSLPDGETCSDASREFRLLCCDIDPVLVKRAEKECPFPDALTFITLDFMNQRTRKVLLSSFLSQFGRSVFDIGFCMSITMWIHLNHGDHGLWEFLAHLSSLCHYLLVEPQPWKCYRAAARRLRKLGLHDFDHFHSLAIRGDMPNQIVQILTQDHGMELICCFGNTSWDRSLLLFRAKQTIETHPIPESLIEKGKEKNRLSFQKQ
Outline: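 Thermal stabilisation read-out: after a 15 min 58 °C heat shock, ePL-tagged BCDIN3D in transiently transfected A549 cells (1500/well) was quantified by enzyme-fragment complementation luminescence. Compounds were pre-incubated with cells 1 h at 37 °C, 0.6% DMSO final.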

BCDIN3D [2] = target: T1, BCDIN3D; test: BCDIN3D IC50 RFMS (RapidFire) assay with mini-helix; assay type: biochemical; conditions: 25 nM enzyme
Outline: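 SAH formation was measured by RapidFire mass spectrometry with D4- and 13C10-SAH internal standards after TCA quench. Substrates 6 μM SAM and 0.2 μM mini-helix reacted 1 h at 37 °C with 25 nM enzyme, which had been preincubated 10 min with compound (1% DMSO) in Tris pH 8.0 buffer with DTT, EDTA, BSA.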

[3] = transiently transfected A549 cells
[4] = mini-helix substrate 0.2 μM, SAM 6 μM
[5] = A549 cells transiently transfected with ePL-BCDIN3D, 1 h pre-incubation
[6] = mini-helix 0.2 μM and SAM 6 μM as substrates, 1 hr at 37° C.

Structure (SMILES)	IC50 (BCDIN3D [1]; [3]) [µM]	IC50 (BCDIN3D [2]; [4]) [µM]	IC50 (BCDIN3D [1]; [5]) [µM]	IC50 (BCDIN3D [2]; [6]) [µM]
Cn1ncc2c(NC3(C)CC(F)(F)C3)nc(NC[C@H](N)c3ccccc3)nc21 [Compound 4.86, N6-[(2R)-2-amino-2-phenyl-ethyl]-N4-(3,3-difluoro-1-methyl-cyclobutyl)-1-methyl-pyrazolo[3,4-d]pyrimidine-4,6-diamine]	1.45	1.6		
COc1ccc(Nc2nc(NCC3(N)CC3)nc3c2cnn3C)cc1Cl [Compound 2.04, 6-N-[(1-aminocyclopropyl)methyl]-4-N-(3-chloro-4-methoxyphenyl)-1-methylpyrazolo[3,4-d]pyrimidine-4,6-diamine]	1.8	0.0608		
Cn1ncc2c(NC3CC(F)(F)C3)nc(NC[C@H](N)c3ccccc3)nc21 [Compound 4.85, N6-[(2R)-2-amino-2-phenyl-ethyl]-N4-(3,3-difluorocyclobutyl)-1-methyl-pyrazolo[3,4-d]pyrimidine-4,6-diamine]	0.267	0.172		
CNc1nc(NC[C@H](N)c2ccccc2)nc2c1cnn2C [Compound 4.40, 6-N-[(2R)-2-amino-2-phenylethyl]-4-N,1-dimethylpyrazolo[3,4-d]pyrimidine-4,6-diamine]	4.79	3.63		
Cn1ncc2c(NC(C)(C)C(F)(F)F)nc(NC[C@H](N)c3cccc(C#N)c3)nc21 [Compound 5.23, 3-[(1R)-1-amino-2-[[1-methyl-4-[(2,2,2-trifluoro-1,1-dimethyl-ethyl)amino]pyrazolo[3,4-d]pyrimidin-6-yl]amino]ethyl]benzonitrile]	0.124	0.0617		
Cc1ccc(CNc2nc(NC[C@@H](C)N)nc3c2cnn3C)cc1Cl [Compound 3.04, 6-N-[(2R)-2-aminopropyl]-4-N-[(3-chloro-4-methylphenyl)methyl]-1-methylpyrazolo[3,4-d]pyrimidine-4,6-diamine]	1.45	0.665		
Cn1ncc2c(Nc3cc(F)ccc3F)nc(NCC3(N)CC3)nc21 [Compound 2.25, 6-N-[(1-aminocyclopropyl)methyl]-4-N-(2,5-difluorophenyl)-1-methylpyrazolo[3,4-d]pyrimidine-4,6-diamine]	3.52	1.54		
Cn1ncc2c(NC3CC(Cl)(Cl)C3)nc(NC[C@H](N)c3ccccc3)nc21 [Compound 4.93, N6-[(2R)-2-amino-2-phenyl-ethyl]-N4-(3,3-dichlorocyclobutyl)-1-methyl-pyrazolo[3,4-d]pyrimidine-4,6-diamine]	0.072	0.0258		
Cn1ncc2c(NC34CC(F)(C3)C4)nc(NC[C@H](N)c3ccccc3)nc21 [Compound 4.67, N6-[(2R)-2-amino-2-phenyl-ethyl]-N4-(3-fluoro-1-bicyclo[1.1.1]pentanyl)-1-methyl-pyrazolo[3,4-d]pyrimidine-4,6-diamine]	0.168	0.179		
Cn1ncc2c(Nc3ccc(OC(F)(F)F)cc3)nc(NCC3(N)CCCC3)nc21 [Compound 3.23, 6-N-[(1-aminocyclopentyl)methyl]-1-methyl-4-N-[4-(trifluoromethoxy)phenyl]pyrazolo[3,4-d]pyrimidine-4,6-diamine]	0.267	0.115		
Cn1ncc2c(Nc3ccc(C(F)(F)F)nc3)nc(NC[C@H](N)c3ccccc3)nc21 [Compound 7.08, N6-[(2R)-2-amino-2-phenyl-ethyl]-1-methyl-N4-[6-(trifluoromethyl)-3-pyridyl]pyrazolo[3,4-d]pyrimidine-4,6-diamine]			0.223	0.0334
Cc1ccc(CNc2nc(NCC(N)c3ccccc3)nc3c2cnn3C)cc1Cl (stereo not drawn) [Compound 4.03, 6-N-(2-amino-2-phenylethyl)-4-N-[(3-chloro-4-methylphenyl)methyl]-1-methylpyrazolo[3,4-d]pyrimidine-4,6-diamine]	0.166	0.0625		
CCn1ncc2c(NC(C)C)nc(NCC(N)c3ccccc3)nc21 (stereo not drawn) [Compound 4.02, 6-N-(2-Amino-2-phenylethyl)-1-ethyl-4-N-propan-2-ylpyrazolo[3,4-d]pyrimidine-4,6-diamine]	5.67	4.28		
Cn1ncc2c(Nc3ccc(C(F)(F)F)cc3)nc(NCC(N)c3ccccc3Cl)nc21 (stereo not drawn) [Compound 5.09, 6-N-[2-amino-2-(2-chlorophenyl)ethyl]-1-methyl-4-N-[4-(trifluoromethyl)phenyl]pyrazolo[3,4-d]pyrimidine-4,6-diamine]	0.0559	0.127		
Cn1ncc2c(Nc3ccc(Cl)c(F)c3)nc(NCC3(N)CC3)nc21 [Compound 2.23]	0.473	0.0591		
Cn1ncc2c(Nc3ccccc3)nc(NCC3(N)CCCC3)nc21 [Compound 3.21, 6-N-[(1-aminocyclopentyl)methyl]-1-methyl-4-N-phenylpyrazolo[3,4-d]pyrimidine-4,6-diamine]	2	1.44		
Cn1ncc2c(NCC(C)(C)C)nc(NC[C@H](N)c3ccccc3)nc21 [Compound 4.72, N6-[(2R)-2-amino-2-phenyl-ethyl]-N4-(2,2-dimethylpropyl)-1-methyl-pyrazolo[3,4-d]pyrimidine-4,6-diamine]	0.318	0.154		
Cn1ncc2c(NC34CC(F)(C3)C4)nc(NCC(N)c3ccccc3)nc21 (stereo not drawn) [Compound 4.65, N6-(2-amino-2-phenylethyl)-N4-{3-fluorobicyclo[1.1.1]pentan-1-yl}-1-methyl-1H-pyrazolo[3,4-d]pyrimidine-4,6-diamine]	0.616	0.23		
Cn1ncc2c(Nc3ccc(Cl)cc3)nc(NC[C@H](N)c3ccccc3)nc21 [Compound 4.30, N6-[(2R)-2-amino-2-phenyl-ethyl]-N4-(4-chlorophenyl)-1-methyl-pyrazolo[3,4-d]pyrimidine-4,6-diamine]	0.0626	0.0286		
Cc1ccc(CNc2nc(NCC(N)c3ccccc3F)nc3c2cnn3C)cc1Cl (stereo not drawn) [Compound 5.12, 6-N-[2-amino-2-(2-fluorophenyl)ethyl]-4-N-[(3-chloro-4-methylphenyl)methyl]-1-methylpyrazolo[3,4-d]pyrimidine-4,6-diamine]	0.643	0.345		
Cn1ncc2c(NC3(C(C)(C)C)CC3)nc(NC[C@H](N)c3ccccc3)nc21 [Compound 4.79, N6-[(2R)-2-amino-2-phenyl-ethyl]-N4-(1-tert-butylcyclopropyl)-1-methyl-pyrazolo[3,4-d]pyrimidine-4,6-diamine]	3.2	2.3		
COc1ccc(-c2cccc(Nc3nc(NCCN)nc4c3cnn4C)c2)cc1 [Compound 1.15, N6-(2-aminoethyl)-N4-{4′-methoxy-[1,1′-biphenyl]-3-yl}-1-methyl-1H-pyrazolo[3,4-d]pyrimidine-4,6-diamine]			1.02	0.541
Cn1ncc2c(Nc3cccc(C(F)(F)F)c3)nc(NCC3(N)CC3)nc21 [Compound 2.06, 6-N-[(1-aminocyclopropyl)methyl]-1-methyl-4-N-[3-(trifluoromethyl)phenyl]pyrazolo[3,4-d]pyrimidine-4,6-diamine]	2.21	0.509		
Cn1ncc2c(Nc3ccc(Cl)c(C#N)c3)nc(NCC3(N)CC3)nc21 [Compound 2.17, 5-[[6-[(1-aminocyclopropyl)methylamino]-1-methyl-pyrazolo[3,4-d]pyrimidin-4-yl]amino]-2-chloro-benzonitrile]	2.56	0.44		
